From the supplement of paper PMC11451515

Key:
Experiment in all cases: AUC of viability dose-response curve (% viability x log10 dose units); higher = less sensitive
Conditions in all cases: 48 h
NOMO1 = system: NOMO1
Summary of the method: (§1)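 Leukemia cells adapted to each medium (500 or 1000 cells/well, 1536-well plates) were exposed to library compounds in DMSO for 48 h at 37°C at 11 threefold doses, 47 μM to 0.79 nM. Luminescence by CellTiter-Glo One was normalised per plate to DMSO and cell-free wells, then fitted with a four-parameter log-logistic curve on log10 dose. Curves above full viability were scaled and quality-control failures removed before area under the curve was integrated by trapezoidal rule.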

P12-Ichikawa = system: P12-Ichikawa
Summary of the method: as §1

SEM cells = system: SEM cells
Summary of the method: as §1

[1] = RPMI 5 mM glucose + 10% dialyzed FBS

Compound | AUC of viability dose-response curve (NOMO1; HPLM + 10% dialyzed FBS) | AUC of viability dose-response curve (NOMO1; RPMI 5 mM glucose + 10% FBS) | AUC of viability dose-response curve (NOMO1; [1]) | AUC of viability dose-response curve (P12-Ichikawa; HPLM + 10% dialyzed FBS) | AUC of viability dose-response curve (P12-Ichikawa; RPMI 5 mM glucose + 10% FBS) | AUC of viability dose-response curve (P12-Ichikawa; [1]) | AUC of viability dose-response curve (SEM cells; HPLM + 10% dialyzed FBS) | AUC of viability dose-response curve (SEM cells; RPMI 5 mM glucose + 10% FBS) | AUC of viability dose-response curve (SEM cells; [1])
CCC(CCCC)COC(=O)C(\C#N)=C(\c1ccccc1)c2ccccc2 (stereo not given) | 465 | 439 | 431 | 463 | 469 | 460 | 438 | 425 | 449
Cc1ccc(Nc2cc(-c3cccc(N4C(=O)c5ccccc5C4=O)c3)ncn2)cc1N[S+](C)(=O)[O-] | 461 | 473 | 469 | 466 | 465 | 474 | 468 | 463 | 468
Cc1c(N)nc([C@H](CC(N)=O)NC[C@@H](N)C(N)=O)nc1C(=O)N[C@H](C(=O)N[C@@H](C)[C@H](O)[C@@H](C)C(=O)N[C@@H](C(=O)NCCc1nc(-c2nc(C(=O)NCCC[S+](C)C)cs2)cs1)[C@@H](C)O)C(O[C@H]1O[C@H](CO)[C@H](O)[C@@H](O)[C@H]1O[C@H]1O[C@H](CO)[C@@H](O)[C@H](OC(N)=O)[C@@H]1O)c1c[nH]cn1 (stereo not given in full) | 394 | 416 | 434 | 411 | 378 | 424 | 415 | 382 | 384
C[C@H](CCC(=O)O)[C@H]1CC[C@H]2[C@@H]3[C@H](O)C[C@@H]4C[C@H](O)CC[C@]4(C)[C@H]3CC[C@]12C | 443 | 436 | 409 | 448 | 431 | 418 | 417 | 406 | 433
CCc1ccc(OCc2ccccc2C(=O)Nc2ccc3nc(C)cc(N)c3c2)cc1 | 368 | 409 | 407 | 409 | 423 | 426 | 377 | 416 | 417
O=C(O)c1ccc(O)c2ncc(N3CCOCC3)cc12 | 447 | 417 | 454 | 452 | 431 | 435 | 453 | 424 | 393
O=C1NC(=O)/C(=C/c2ccc3nccnc3c2)S1 | 457 | 444 | 439 | 464 | 443 | 453 | 441 | 441 | 428
CCCCCNC(=N)N/N=C/c1c[nH]c2ccc(OC)cc12 | 440 | 442 | 441 | 429 | 429 | 436 | 426 | 424 | 428
CC(C)C1CCC(C(=O)N[C@H](Cc2ccccc2)C(=O)O)CC1 (stereo not given in full) | 409 | 418 | 446 | 452 | 435 | 419 | 394 | 401 | 422
CC(=O)N(C)C1(c2ccccc2)CCN(CCC[C@]2(c3ccc(Cl)c(Cl)c3)CCCN(C(=O)c3ccccc3)C2)CC1 | 294 | 344 | 343 | 346 | 387 | 366 | 305 | 303 | 326
O=C(O)c1cc(O)c2c(c1)C(=O)c1cccc(O)c1C2=O | 464 | 445 | 466 | 455 | 464 | 443 | 451 | 460 | 464
CO[C@H]1CCC(O[C@H]2C[C@H]([C@]3(C)CC[C@]4(C[C@H](O)[C@@H](C)[C@@H]([C@@H](C)/C=C(\C)C(=O)[C@H](C)C[C@H](C)C(=O)[O-])O4)O3)O[C@]3(O[C@@H]([C@H]4O[C@@](O)(CO)[C@H](C)C[C@@H]4C)C[C@@H]3C)[C@@H]2C)O[C@@H]1C (stereo not given in full) | 405 | 449 | 415 | 353 | 366 | 376 | 368 | 352 | 344
COc1ccccc1[C@H](c1cccc2ccccc12)[C@@](C)(C#N)C(=O)N1CCC(c2cccc(C(F)(F)F)c2)CC1 | 431 | 458 | 427 | 450 | 425 | 432 | 435 | 456 | 434
CC[C@H]1OC(=O)[C@H](C)[C@@H](O[C@H]2C[C@@](C)(OC)[C@@H](O)[C@H](C)O2)[C@H](C)[C@@H](O[C@@H]2O[C@H](C)C[C@H](N(C)C)[C@H]2O)[C@](C)(OC)C[C@@H](C)C(=O)[C@H](C)[C@@H](O)[C@]1(C)O | 405 | 440 | 409 | 435 | 443 | 437 | 452 | 461 | 452
CC(C(C)N1CC(=O)NC(=O)C1)N1CC(=O)NC(=O)C1 (stereo not given) | 459 | 468 | 471 | 454 | 425 | 447 | 422 | 351 | 401
Nc1nc(F)nc2c1ncn2[C@@H]1O[C@H](COP(=O)(O)O)[C@@H](O)[C@@H]1O | 420 | 456 | 448 | 448 | 460 | 454 | 353 | 398 | 352
Cc1ccc(C(=O)Nc2cccc(C(F)(F)F)c2)cc1Nc1nc(-c2cccnc2)nc2c1cnn2C | 392 | 396 | 409 | 421 | 393 | 416 | 362 | 411 | 407
OC1=CC=C(C=C1)C/2=C/C3=C(OC2)C=C(O)C=C3 | 368 | 411 | 418 | 354 | 356 | 349 | 355 | 358 | 362
CN(C)CCCC1(c2ccc(F)cc2)OCc2cc(C#N)ccc21 (stereo not given) | 425 | 431 | 392 | 433 | 415 | 425 | 447 | 426 | 432
Cc1ccc([C@@H]2O[C@H](CO)[C@@H](O)[C@H](O)[C@H]2O)cc1Cc1ccc(-c2ccc(F)cc2)s1 | 467 | 468 | 472 | 465 | 467 | 465 | 475 | 467 | 468
CN1CCc2c(c3ccccc3n2Cc2ccc(C(=O)NO)cc2)C1 | 373 | 358 | 397 | 401 | 370 | 377 | 348 | 364 | 310
NC(=O)c1cccc(-c2cc(Nc3ccc(OC(F)(F)F)cc3)ncn2)c1 | 457 | 436 | 428 | 469 | 466 | 460 | 441 | 464 | 423
CC(C)(N)C(=O)N[C@H](COCc1ccccc1)C(=O)N1CCC2(CC1)CN([S+](C)(=O)[O-])c1ccccc12 | 402 | 460 | 446 | 445 | 440 | 438 | 448 | 437 | 419
C[C@]12CC[C@H]3[C@@H](CC(=C)\C4=C\C(=O)\C=C/[C@]34C)[C@@H]1CCC2=O | 463 | 429 | 444 | 466 | 466 | 461 | 426 | 438 | 437
CO[C@@H](C(=O)N1Cc2[nH]nc(NC(=O)c3ccc(N4CCN(C)CC4)cc3)c2C1)c1ccccc1 | 352 | 319 | 319 | 268 | 260 | 300 | 277 | 247 | 248
